In ChEMBL document CHEMBL1133944, “Identification of a series of oxadiazole-substituted alpha-isopropoxy phenylpropanoic acids with activity on PPARalpha, PPARgamma, and PPARdelta” (Bioorg Med Chem Lett, 2001):

Key:
[1] = target: T1, Peroxisome proliferator-activated receptor gamma (Homo sapiens, UniProt P37231); assay: Agonist activity against human peroxisome proliferator activated receptor gamma was determined; type: functional
T1 sequence (P37231 whole entry): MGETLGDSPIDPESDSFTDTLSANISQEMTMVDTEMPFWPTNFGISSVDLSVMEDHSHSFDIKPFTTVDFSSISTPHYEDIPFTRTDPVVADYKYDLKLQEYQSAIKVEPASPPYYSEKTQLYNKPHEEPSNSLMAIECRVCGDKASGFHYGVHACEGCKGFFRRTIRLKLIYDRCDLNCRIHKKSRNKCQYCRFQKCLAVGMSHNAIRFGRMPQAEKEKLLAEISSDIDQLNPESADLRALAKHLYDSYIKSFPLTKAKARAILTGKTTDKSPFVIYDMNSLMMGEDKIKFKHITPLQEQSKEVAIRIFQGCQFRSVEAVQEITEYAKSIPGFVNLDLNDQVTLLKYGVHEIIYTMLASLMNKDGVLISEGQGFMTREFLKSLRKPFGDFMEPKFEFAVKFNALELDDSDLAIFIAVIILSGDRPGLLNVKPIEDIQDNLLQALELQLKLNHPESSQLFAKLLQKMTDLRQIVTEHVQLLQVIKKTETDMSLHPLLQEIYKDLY

[2] = target: T2, Peroxisome proliferator-activated receptor delta (Homo sapiens) (UniProt Q03181); assay: Percent activation for human Peroxisome proliferator activated receptor delta; type: functional
T2 sequence (whole entry): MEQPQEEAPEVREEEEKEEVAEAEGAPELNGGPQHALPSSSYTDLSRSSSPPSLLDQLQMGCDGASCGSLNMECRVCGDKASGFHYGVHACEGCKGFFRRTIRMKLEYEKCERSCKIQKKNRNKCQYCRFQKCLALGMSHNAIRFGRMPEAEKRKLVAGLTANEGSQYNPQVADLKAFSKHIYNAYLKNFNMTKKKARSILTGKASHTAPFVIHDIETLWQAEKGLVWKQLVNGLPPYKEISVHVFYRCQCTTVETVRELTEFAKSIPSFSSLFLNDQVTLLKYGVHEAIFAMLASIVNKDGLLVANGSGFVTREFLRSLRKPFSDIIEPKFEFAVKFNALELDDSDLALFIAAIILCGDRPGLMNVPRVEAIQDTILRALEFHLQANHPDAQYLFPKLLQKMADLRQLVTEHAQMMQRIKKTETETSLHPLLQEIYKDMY

[3] = target: T3, Peroxisome proliferator-activated receptor alpha (Homo sapiens, UniProt Q07869); assay: Agonist activity against human Peroxisome proliferator activated receptor alpha was determined; type: functional
T3 sequence (Q07869 whole entry): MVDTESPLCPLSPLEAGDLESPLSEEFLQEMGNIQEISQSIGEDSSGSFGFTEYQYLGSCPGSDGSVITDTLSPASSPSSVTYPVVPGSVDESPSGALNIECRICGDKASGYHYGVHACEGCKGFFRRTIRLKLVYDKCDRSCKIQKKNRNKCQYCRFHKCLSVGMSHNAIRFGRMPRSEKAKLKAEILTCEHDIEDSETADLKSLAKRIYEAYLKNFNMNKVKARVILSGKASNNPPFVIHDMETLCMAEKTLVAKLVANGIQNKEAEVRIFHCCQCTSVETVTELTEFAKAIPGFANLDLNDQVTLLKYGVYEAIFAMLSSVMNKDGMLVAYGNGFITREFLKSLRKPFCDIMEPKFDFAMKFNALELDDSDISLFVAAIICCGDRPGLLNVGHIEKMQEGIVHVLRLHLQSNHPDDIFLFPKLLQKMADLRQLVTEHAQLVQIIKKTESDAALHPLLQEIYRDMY

[4] = target: T4, Peroxisome proliferator-activated receptor delta (Homo sapiens, UniProt Q03181); assay: Agonist activity against human PPAR delta receptor in CV-1 cell was determined; type: functional, cell-based
T4 sequence (Q03181 whole entry): T2 sequence (whole entry)

[5] = target: T1, Peroxisome proliferator-activated receptor gamma; assay: Agonist activity against human Peroxisome proliferator activated receptor gamma receptor in CV-1 cell was determined; type: functional, cell-based
[6] = target: T3, Peroxisome proliferator-activated receptor alpha; assay: Agonist activity against human Peroxisome proliferator activated receptor alpha receptor in CV-1 cell was determined; type: functional, cell-based
[7] = target: T1, Peroxisome proliferator-activated receptor gamma; assay: Agonist activity against human peroxisome proliferator activated receptor gamma in CV-1 cell was determined; type: functional, cell-based
[8] = target: T4, Peroxisome proliferator-activated receptor delta; assay: Agonist activity against human Peroxisome proliferator activated receptor delta in CV-1 cell was determined; type: functional, cell-based
[9] = target: T3, Peroxisome proliferator-activated receptor alpha; assay: Agonist activity against human Peroxisome proliferator activated receptor alpha in CV-1 cell was determined; type: functional, cell-based

Structure (SMILES) | EC50 [4] | EC50 [5] | EC50 [6] | further results
CC(C)OC(Cc1ccc(OCCc2noc(-c3cc(C(F)(F)F)cc(C(F)(F)F)c3)n2)cc1)C(=O)O (stereo not drawn) | – | – | – | EC50 [1]: 4 nM; Activation [2]: < 40%; EC50 [3]: 50 nM
CC(C)OC(Cc1ccc(OCCc2noc(-c3cccc(Cl)c3)n2)cc1)C(=O)O (stereo not drawn) | 100 nM | 4 nM | 320 nM | –
CC(C)OC(Cc1ccc(OCc2noc(C3CCCCC3)n2)cc1)C(=O)O (stereo not drawn) | – | 230 nM | 240 nM | –
CC(C)OC(Cc1ccc(OCc2noc(-c3ccc(C(F)(F)F)cc3)n2)cc1)C(=O)O (stereo not drawn) | 500 nM | 25 nM | 32 nM | –
Cc1ccccc1-c1nc(COc2ccc(CC(OC(C)C)C(=O)O)cc2)no1 (stereo not drawn) | 1600 nM | 100 nM | 40 nM | –
CC(C)OC(Cc1ccc(OCc2noc(-c3ccc(Cl)cc3)n2)cc1)C(=O)O (stereo not drawn) | 500 nM | 20 nM | 13 nM | –
CC(C)OC(Cc1ccc(OCc2noc(-c3ccc(OC(F)(F)F)cc3)n2)cc1)C(=O)O (stereo not drawn) | 7900 nM | 63 nM | 20 nM | –
CC(C)OC(Cc1ccc(OCc2noc(-c3cc(C(F)(F)F)cc(C(F)(F)F)c3)n2)cc1)C(=O)O (stereo in doubt; -1n) [listing 1 of 2 here] | – | – | – | Activation [2]: 40%
CC(C)OC(Cc1ccc(OCc2noc(-c3ccc(F)cc3)n2)cc1)C(=O)O (stereo not drawn) | 7900 nM | 200 nM | 160 nM | –
CC(C)OC(Cc1ccc(OCCc2noc(-c3ccccc3C(F)(F)F)n2)cc1)C(=O)O (stereo not drawn) | – | – | – | EC50 [7]: 160 nM; EC50 [8]: 2500 nM; EC50 [9]: 400 nM
CC(C)OC(Cc1ccc(OCc2noc(-c3cc(C(F)(F)F)cc(C(F)(F)F)c3)n2)cc1)C(=O)O (stereo in doubt; (+)1n) [listing 1 of 2 here] | – | – | – | EC50 [7]: 630 nM; EC50 [8]: 790 nM; EC50 [9]: 2500 nM
CC(C)OC(Cc1ccc(OCc2noc(-c3ccc(C(C)C)cc3)n2)cc1)C(=O)O (stereo not drawn) | 7900 nM | 4 nM | 13 nM | –
CC(C)OC(Cc1ccc(OCCc2noc(-c3ccc(F)cc3)n2)cc1)C(=O)O (stereo not drawn) | – | 40 nM | 790 nM | –
CC(C)OC(Cc1ccc(OCc2noc(-c3cc(C(F)(F)F)cc(C(F)(F)F)c3)n2)cc1)C(=O)O (stereo in doubt; -1n) [listing 2 of 2 here] | – | – | – | EC50 [7]: 32 nM; EC50 [8]: 630 nM; EC50 [9]: 4 nM
CC(C)OC(Cc1ccc(OCc2noc(-c3ccc(Br)cc3)n2)cc1)C(=O)O (stereo not drawn) | 790 nM | 32 nM | 40 nM | –
CC(C)OC(Cc1ccc(OCc2noc(-c3cc(C(F)(F)F)cc(C(F)(F)F)c3)n2)cc1)C(=O)O (stereo not drawn) | 320 nM | 32 nM | 6 nM | –
CC(C)OC(Cc1ccc(OCc2noc(-c3cc(F)cc(F)c3)n2)cc1)C(=O)O (stereo not drawn) | 160 nM | 100 nM | 40 nM | –
CC(C)OC(Cc1ccc(OCCc2noc(-c3ccccc3)n2)cc1)C(=O)O (stereo not drawn) | – | 13 nM | 2000 nM | –
CC(C)OC(Cc1ccc(OCCc2noc(-c3cccc(F)c3)n2)cc1)C(=O)O (stereo not drawn) | 4000 nM | 2 nM | 500 nM | –
CC(C)OC(Cc1ccc(OCc2noc(-c3ccc(C(C)(C)C)cc3)n2)cc1)C(=O)O (stereo not drawn) | 5000 nM | 3 nM | 40 nM | –
CC(C)OC(Cc1ccc(OCc2noc(-c3cc(C(F)(F)F)cc(C(F)(F)F)c3)n2)cc1)C(=O)O (stereo in doubt; (+)1n) [listing 2 of 2 here] | – | – | – | Activation [2]: 40%
CC(C)OC(Cc1ccc(OCCc2noc(-c3cccc(C(F)(F)F)c3)n2)cc1)C(=O)O (stereo not drawn) | 500 nM | 6 nM | 200 nM | –
CC(C)OC(Cc1ccc(OCCc2noc(-c3ccc(Cl)cc3)n2)cc1)C(=O)O (stereo not drawn) | – | 25 nM | 400 nM | –
CC(C)OC(Cc1ccc(OCc2noc(-c3ccccc3)n2)cc1)C(=O)O (stereo not drawn) | 10000 nM | 79 nM | 160 nM | –
CC(C)OC(Cc1ccc(OCc2noc(-c3cccc(F)c3)n2)cc1)C(=O)O (stereo not drawn) | 7900 nM | 100 nM | 79 nM | –
Cc1ccc(-c2nc(COc3ccc(CC(OC(C)C)C(=O)O)cc3)no2)cc1 (stereo not drawn) | 2500 nM | 16 nM | 25 nM | –
Cc1cccc(-c2nc(COc3ccc(CC(OC(C)C)C(=O)O)cc3)no2)c1 (stereo not drawn) | 1600 nM | 50 nM | 79 nM | –
